We go through 5 compounds from paper PMC5570892, “Indole-based perenosins as highly potent HCl transporters and potential anti-cancer agents” (Scientific Reports, 2017).

A short description of series [1]: Cationophore coupled KCl efflux ISE assay (valinomycin or monensin). Type of series: biochemical. Conditions: perenosins 0.1 mol%, prodigiosin 0.01 mol%, monensin 0.1 mol%, pH 7.2. The procedure: Herein, we employed two recently reported complementary cationophore coupled assays[19] to unambiguously confirm H^+/Cl^− symport facilitated by perenosins is a strictly inseparable process. Briefly, unilamellar vesicles were prepared with an internal solution of KCl (300 mM) and an external solution of K2SO4 (150 mM), buffered to pH 7.2 with potassium phosphate salts (5 mM). The naturally occurring cationophores valinomycin and monensin were either added alone, or in combination with a perenosin and the resulting chloride efflux, driven by a large chloride concentration gradient, was monitored using a chloride ISE. […] In contrast, monensin functions as an electroneutral transporter. […]
Figure S130. […] The final chloride efflux reading was taken a t 9 mins and was used as the 100% chloride efflux value. […]
The lipid stock solution was diluted with the external buffer solution to a standard volume (5 mL), to afford a solution with a lipid concentration of 1 mM. […] The compounds were added as a DMSO solution (0.1 mol% (with respect to lipid), 10 μL) to start the experiment and the resulting chloride efflux was monitored using a chloride selective electrode over 5 minutes. After this time, detergent (50 μL of Triron X-100 (11 w%) in H2O:DMSO (7:1 v/v)) was added to lyse the vesicles and after 7 minutes a final chloride efflux reading was taken. […]

Series [2] has as its system MDA-MB-231 cells. The experiment in a line: Annexin-V flow cytometric apoptosis assay. Type of series: cell-based, human. The procedure:
The specific late onset of affecting cell viability induced by perenosins is interesting, and to the best of our knowledge this phenomenon has not been observed for other anion transporters. […] It is known that synthetic transporters can disrupt ion homeostasis in cells and induce cell death via an apoptotic pathway, [22], [32], [63], [64].
S11.3 Apoptosis Evaluation through Annexin-V Assay
MDA-MB-231 cells (1x10^5 cells) were seeded in 6-well plates and, after 24 h, they were treated with […]
Afterwards, cells were detached, centrifuged at 300 g for 5 min and resuspended in 1 ml of 1X PBS-1% FBS. Then, 100 µl of cell suspension were mixed with Annexin-V kit buffer (1:1; Muse Annexin V & Dead Cell Assay, Merck Millipore, Merck KGaA, Darmstadt, Germany). After 20 min incubation at room temperature, cells were examined on the Muse™ Cell Analyzer (Merck Millipore). All the conditions were assessed in three independent experiments. Results are shown as the mean value ± S.D. and representative results are shown in the […]
Figure S154. Flow cytometry of MDA-MB-231 cells treated with IC50 concentrations of compound 2 and 6 for 48 and 72 hours plus 10 µM of compound 6 for 72 h. Axes show Annexin-V binding versus […]
(1 picture or pasted object on this page, not shown here)
Background: Flow cytometry measures light scatter and fluorescence of single cells or particles in a stream.

A short description of series [3]: Stability in vesicles by UV-Vis. Type of series: physicochemical. Conditions: POPC lipid solution, 2 hours. The procedure: The spectra obtained over the course of 72 hours for 1d, 2 and 4-8 show similar trends, 3 was not tested because it was unavailable. All spectra show a decrease in the peak at around 400 nm after 6 hours and an increase in the peak at around 300 nm after 72 hours. These changes in spectra […]
72 hours. The absorbance for 6 decreases dramatically for the readings after 6 hours because most […]
S7.2 Stability in Vesicles
Stability studies were performed for the perenosins in vesicles using UV-Vis spectroscopy to probe the lifetime of compounds 1d and 2-8 at pH 7.2 and pH 4.6. Unilamellar vesicles were prepared using previously reported literature procedures7-9. A lipid film of POPC (1-palmitoyl-2-oleoyl-sn-glycero-3-phosphocholine) was prepared from a chloroform solution under reduced pressure and then dried under vacuum for 4 or more hours. The lipid film was rehydrated by vortexing with a solution of phosphate buffered (5 mM) sodium chloride (500 mM). The lipid suspension was then subjected to 9 freeze-thaw cycles and left to rest at room temperature for 30 minutes. After this, the suspension was extruded 25 times through a 400 nm polycarbonate membrane resulting in unilamellar vesicles of a mean diameter of 400 nm. […]
Figure S65. Absorbance spectra taken over 2 hours of 1d (25 mM) in a sodium chloride (500 mM) phosphate buffered (5 mM) lipid solution. a) pH 7.2 b) pH 4.6 […]

Consider `CCCCCc1cc2cc(C)cc(/N=C/c3[nH]c4ccccc4c3C)c2[nH]1` [Perenosin 8], for which the “chloride efflux coupled to monensin” value in series [1] was “do not facilitate chloride transport”.
As for `CCCCCc1cc2cc(C)cc(/N=C/c3[nH]c(C)cc3C)c2[nH]1` [Perenosin 2], the “apoptosis induction (Annexin-V)” value in series [2] (at IC50 value, 48 h and 72 h) was “clearly induces cell death by apoptosis”.
With `CCCCCc1cc(/N=C/c2[nH]c3ccccc3c2C)c2[nH]ccc2c1` [Perenosin 7], the “chloride efflux coupled to monensin” value in series [1] is on record as “do not facilitate chloride transport”.
`CCCCCc1cc(/N=C/c2[nH]c(C)cc2C)c2[nH]ccc2c1` [Perenosin 1d]: the “stability in vesicles at pH 7.2” value in series [3] is “stable”.
In the case of `CCCCCc1cc2cc(C)cc(/N=C/c3[nH]c(C)c(CCCCC)c3C)c2[nH]1` [Perenosin 6], the “apoptosis induction (Annexin-V)” value in series [2] (10 µM) was “increase in both early and late apoptotic cell populations”; in series [2] (at IC50 value, 48 h and 72 h), “slight increase in apoptotic cells”.
